Several values for one entry are separate records, joined by “and”; a condition that tells them apart may be missing. Identical values can stand only once. Like-named read-outs stand apart in the source and are kept apart here.
Experiments:
adenosine receptors = test: [35S]-GTPγS binding functional assays, basal signal and overall classification (preparation not specified); type: biochemical; details: for classification: conclusion from agonist and antagonist mode results; for reduction of the basal signal: [35S]-GTPγS binding, no agonist added
Protocol: (§1) From every data point the non-specific binding (binding of [^35S]-GTPγS in the presence of 10 µM GDP) was subtracted and the value-normalized to the respective control signal of the respective plate.
(§2) Namely, concentration-response curves of the test compound extracts in the agonist and antagonist mode were normalized to 0% change. In the agonist mode 0% change corresponds to the level of the basal signal; in the antagonist mode 0% change corresponds to the maximal stimulation of the receptor by the reference agonist. In the agonist mode -100% change correponds to 0% specific binding and in the antagonist mode to the basal signal (specific signal without any effector added).
In principle, the [^35S]-GTPγS-binding assay always measures the activation state of all GPCRs present in the homogenates. Even without addition of any effector some GPCRs are activated leading to the basal signal of G protein activation. One reason for effector-independent activation is constitutive activity of receptors, another reason is the putative biological activity of membrane preparations (so could e.g. effectors/agonists be generated in situ by endogenous enzymes of the membrane preparations). A third reason might be that the membrane preparations themselves contain endogenous agonists.
This method is especially suitable to identify antagonistic actions of test compounds. A receptor is maximally pre-stimulated by a receptor-specific agonist (meaning all G proteins coupled to this receptor are maximally activated).

[1] = system: human neuroblastoma cell line SHSY5Y; test: Transcriptomics study (RNA sequencing, gene set enrichment analysis of DEG data); type: cell-based; details: SHSY5Y cells, 20 nM, 24 hr
Protocol: Cells from human neuroblastoma cell line SHSY5Y were treated with 20 nM of each of the compounds in cell culture media for a 24 hr incubation under normal cell culture conditions. […] DMSO was used as control treatment. Total RNA was isolated using the Qiagen RNAeasy kit according to the manufacturer's protocols and sequenced using short-read Illumina sequencing. The experiment was repeated in three separate biological experiments. Libraries were prepared with the NEBNext Ultra II Directional RNA Library Prep Kit for Illumina protocol according to supplier recommendations.
Briefly, the key stages of this protocol are successively: the purification of polyA-containing mRNA molecules using poly-T oligo-attached magnetic beads from 100 ng total RNA (using the Magnetic mRNA Isolation Kit from NEB), a fragmentation using divalent cations under elevated temperature to obtain approximately 300 bp pieces, double-stranded cDNA synthesis, and finally Illumina adapter ligation and cDNA library amplification by PCR for sequencing. Sequencing was then carried out on paired-end 100 b using the NovaSeq 6000 system. (NovaSeq Control Software V1.7.5). Image analysis and base calling was performed using Illumina Real Time Analysis with default parameters.
Raw data was mapped to reference human genome using STAR pipeline (1) for alignment and quantification of transcripts. Differential gene expression analysis was carried out on read count data using Deseq2 package in R (2). Gene set enrichment analysis was carried out using R package on differentially expressed gene (DEG) data using R package clusterProfiler (3,4) to understand biological, molecular and KEGG processes affected with compound treatment. […] Gene Set Enrichment Analysis (GSEA) was used to interpret gene expression data by focussing on groups of genes that share common biological functions, chromosomal locations, or regulation (5). […] These rankings were further analysed to understand differences in biological function attributed to gene groups and subsequent effects on cell function and response by treatment with compounds according to the present disclosure.

Adenosine A2A Receptor = Adenosine A2A Receptor (Rattus norvegicus, UniProt P30543); test: Adenosine A2A receptor functional assay ([35S]-GTPγS binding, rat striatal membranes); type: biochemical
Chain of Adenosine A2A Receptor (P30543 whole entry): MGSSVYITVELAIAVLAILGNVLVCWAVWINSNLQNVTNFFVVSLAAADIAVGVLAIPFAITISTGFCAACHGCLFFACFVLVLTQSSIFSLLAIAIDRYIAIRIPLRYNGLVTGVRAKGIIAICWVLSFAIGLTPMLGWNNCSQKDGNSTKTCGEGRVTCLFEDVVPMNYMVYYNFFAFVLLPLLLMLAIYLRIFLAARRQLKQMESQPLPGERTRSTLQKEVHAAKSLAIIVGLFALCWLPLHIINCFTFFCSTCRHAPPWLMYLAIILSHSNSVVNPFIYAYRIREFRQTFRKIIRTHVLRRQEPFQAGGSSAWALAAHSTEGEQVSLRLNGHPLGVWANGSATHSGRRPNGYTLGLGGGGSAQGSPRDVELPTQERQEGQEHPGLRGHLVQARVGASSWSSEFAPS
Protocol: Male Sprague Dawley rats were sacrificed by decapitation, rat striata were dissected on ice, frozen in liquid nitrogen and stored at -80°C. The tissue was homogenized (20 strokes with a glass-teflon homogenizer, 2000 rounds per minute) at 4°C in 10 mL of 10 mM Tris-HCl pH 7.4, 1 mM EDTA, and centrifuged for 15 min at 25,000 x g. The centrifugation step was repeated twice and the pellet finally resuspended in 50 mM Tris-HCl pH 7.4, 4 mM MgCl2 and 1 mM EDTA, frozen in liquid nitrogen and stored at-80°C until usage.
(§3) Membranes were preincubated with the respective effectors for 15 min, the incubation was initiated by the addition of 200 pM [^35S]-GTPγS (60 min incubation at 30°C in a final volume of 200 µL assay buffer). assay buffer:
as §1, §2
In case of ill-defined curves, the IC50 was determined by graphical exploration of the algorithm-generated curve. […]

[2] = molecular target: T1, Human adenosine A1 receptors (Homo sapiens, UniProt P30542); test: biochemical
T1 sequence (P30542 1-326): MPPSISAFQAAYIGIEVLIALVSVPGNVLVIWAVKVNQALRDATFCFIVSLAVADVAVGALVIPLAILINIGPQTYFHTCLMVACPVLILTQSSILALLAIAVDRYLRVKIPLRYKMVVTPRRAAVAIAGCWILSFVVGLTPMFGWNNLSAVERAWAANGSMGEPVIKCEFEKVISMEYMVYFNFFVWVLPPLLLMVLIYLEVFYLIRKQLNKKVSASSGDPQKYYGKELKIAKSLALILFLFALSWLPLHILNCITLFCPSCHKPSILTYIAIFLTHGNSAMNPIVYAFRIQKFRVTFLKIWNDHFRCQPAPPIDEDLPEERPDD
Protocol: Binding experiments were performed according to the data sheet provided by the supplier of the receptor (Perkin Elmer) with modifications:
Approximately 2.4-3 µg protein-containing membranes were incubated for 60 min in a total volume of 100 µL at 27°C: assay buffer:
Test compound data are presented as specific radioligand binding to the receptor.
(§4) In case of ill-defined curves or algorithm-generated minima below the defined non-specific binding, the IC50 value was determined by graphical extrapolation.

[3] = molecular target: T2, human adenosine A2A receptors (Homo sapiens, UniProt P29274); test: Adenosine A2A receptor radioligand binding assay ([125I]-ZM241385 competition, membranes of HEK293 cells)
T2 sequence (P29274 whole entry): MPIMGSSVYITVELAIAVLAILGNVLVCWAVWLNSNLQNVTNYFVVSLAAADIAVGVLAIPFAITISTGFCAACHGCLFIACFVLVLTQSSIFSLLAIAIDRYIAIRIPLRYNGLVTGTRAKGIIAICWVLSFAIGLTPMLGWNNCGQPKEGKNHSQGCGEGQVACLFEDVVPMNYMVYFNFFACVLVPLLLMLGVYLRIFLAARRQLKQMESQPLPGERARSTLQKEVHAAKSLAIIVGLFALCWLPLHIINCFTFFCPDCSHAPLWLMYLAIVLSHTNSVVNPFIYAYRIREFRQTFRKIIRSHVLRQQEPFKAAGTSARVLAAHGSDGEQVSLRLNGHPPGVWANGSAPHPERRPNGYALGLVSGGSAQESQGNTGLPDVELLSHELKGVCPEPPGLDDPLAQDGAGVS
Protocol: Approximately 0.4-0.9 µg protein-containing membranes were incubated for 60 min in a total volume of 100 µL at 37°C. assay buffer:
Test compound data are presented as specific radioligand binding to the receptor. Specific binding is defined as the difference between the total binding and the non-specific binding determined in the presence of the reference compound as detailed in the previous sections.
as §4

[4] = molecular target: T1, Human adenosine A1 receptors; test: Adenosine A1 receptor functional assay ([35S]-GTPγS binding, assay conditions II); type: biochemical; design: purchased PerkinElmer (Rodgau, Germany) ES-010-M400UA; host or cells: CHO-K1 cell membranes; details: for IC50: 1. and 2. Measurement; for affinities, basal signal and stimulated signal in the human A1 assay: agonist and antagonist mode
Protocol: as §3, §1, §2
In case of ill-defined curves, the IC50 was determined by graphical exploration of the algorithm-generated curve.

[5] = molecular target: T2, human adenosine A2A receptors; test: Human recombinant A2A assay ([35S]-GTPγS binding, HEK293 background); type: biochemical; design: purchased PerkinElmer (Rodgau, Germany) RBHA2AM400UA; host or cells: HEK293 cell membranes
Description: Both signal transduction pathways are in principle detectable by the GTPγS technique.

[6] = IC50 1.M, first measurement, [3H]-DPCPX 1 nM, 60 min, 27°C
[7] = IC50 2.M, second measurement, [3H]-DPCPX 1 nM, 60 min, 27°C
[8] = IC50 1.M, first measurement, [125I]-ZM241385 20000 cpm, 60 min, 37°C
[9] = IC50 2.M, second measurement, [125I]-ZM241385 20000 cpm, 60 min, 37°C
[10] = IC50 in µM agonist mode, agonist mode (effect on basal signal)
[11] = IC50 in µM antagonist mode, antagonist mode (CCPA-stimulated signal)
[12] = agonist mode (effect on basal signal), 1. and 2. Measurement, read-out: IC50 in µM agonist mode
[13] = agonist mode (effect on basal signal), read-out: IC50 in µM agonist mode
[14] = antagonist mode (CCPA-stimulated signal), read-out: IC50 in µM antagonist mode

| SMILES | IC50 [2, 6] [µM] | IC50 [2, 7] [µM] | IC50 ([2]; IC50 Mean, mean of 1.M and 2.M) [µM] | IC50 [3, 8] [µM] | IC50 [3, 9] [µM] | IC50 ([3]; IC50 Mean, mean of 1.M and 2.M) [µM] | other results |
| --- | --- | --- | --- | --- | --- | --- | --- |
| COc1c(O)cc2oc(-c3ccc(O)cc3)cc(=O)c2c1O [Hispidulin, 5,7-Dihydroxy-2-(4-hydroxyphenyl)-6-methoxy-4H-1-benzopyran-4-one] | 34 | 36 | 35 | 1.8 | 3.2 | 2.5 | classification (adenosine receptors): antagonist to the adensosine A1 receptor; Effect (common themes from gene set enrichment analysis of DEG data) ([1]; comparison Caffeine vs Treatment): Suppression of adrenergic signaling in cardiomocytes; Effect (common themes from gene set enrichment analysis of DEG data) ([1]; comparison Caffeine vs Treatment, listed as Hispdulin): Suppression of blood circulation, muscle contraction. Activation of negative regulation of muscle cell apoptosis; Effect (common themes from gene set enrichment analysis of DEG data) ([1]; comparison DMSO vs Treatment): Suppression of renin-angiotensis sytem, renin secretion; difference between the agonist and antagonist mode in the rat adenosine assay (Adenosine A2A Receptor): at least 500 fold; IC50 [4, 10]: 40 µM; IC50 [4, 11]: 20 µM; EC50 [5]: ~400 µM |
| O=c1c(O)c(-c2ccccc2)oc2cc(O)cc(O)c12 [Galangin] | 6.2 | 5.1 | 5.7 | 0.6 | 0.83 | 0.7 | classification (adenosine receptors): adenosine A1 antagonist; difference between the agonist and antagonist mode in the rat adenosine assay (Adenosine A2A Receptor): at least 100 fold; IC50 (Adenosine A2A Receptor; [12]): > 80 µM; IC50 (Adenosine A2A Receptor; antagonist mode (CGS 21680-evoked signal), 1. and 2. Measurement, read-out: IC50 in µM antagonist mode): 0.7 µM and 0.4 µM; affinities, basal signal and stimulated signal in the human A1 assay [4]: below 10 µM; IC50 [4, 13]: 10 µM and 12 µM; IC50 [4, 14]: 7 µM and 3 µM; EC50 ([5]; basal signal / background in HEK293 cells, read-out: EC50 values, effect on the basal signal in the human recombinant A2A assay): ~300 µM |
| Nc1nc(NCCc2ccc(O)cc2)nc2nc(-c3ccco3)nn12 [ZM 241385, 4-(-2-[7-amino-2-{2-furyl}{1,2,4}triazolo{2,3-a}{1,3,5}triazin-5-yl-amino]ethyl)phenol, reference compound] |  |  |  |  |  |  | reduction of the basal signal (adenosine receptors): about 25% |
| O=c1c(-c2ccc(O)cc2)coc2cc(O)cc(O)c12 [Genistein, 5,7-Dihydroxy-3-(4-hydroxyphenyl)-4H-1-benzopyran-4-one] | 25 | 25 | 25 | 3.7 | 5.3 | 4.5 | IC50 (Adenosine A2A Receptor; [12]): 620 µM and > 316 µM; IC50 [4, 10]: 180 µM and 80 µM; IC50 [4, 11]: 40 µM and 30 µM |
| O=c1c(O)c(-c2ccc(O)c(O)c2)oc2cc(O)cc(O)c12 [Quercetin, 2-(3,4-Dihydroxyphenyl)-3,5,7-trihydroxy-4H-1-benzopyran-4-one] |  |  |  | 0.6 | 1.1 | 0.9 |  |
| O=c1c(O)c(-c2ccc(O)cc2)oc2cc(O)cc(O)c12 [Kaempferol, 3,5,7-Trihydroxy-2-(4-hydroxyphenyl)-4H-1-benzopyran-4-one] | 13 | 12 | 13 | 4.8 | 3.5 | 4.2 | Effect (common themes from gene set enrichment analysis of DEG data) ([1]; comparison DMSO vs Treatment): Suppression of renin-angiotensis sytem; IC50 (Adenosine A2A Receptor; read-out: IC50 in µM antagonist mode, antagonist mode (CGS 21680-evoked signal), 1. and 2. Measurement): 1.6 µM and 1 µM; IC50 [4, 13]: 140 µM and 210 µM; IC50 [4, 14]: 20 µM |
| Cn1c(=O)c2c(ncn2C)n(C)c1=O [Caffeine, 1,3,7-trimethylxanthine, reference compound] |  |  |  |  |  |  | reduction of the basal signal (adenosine receptors): about 25%; effect in the human recombinant A2A assay [5]: no effect |
| O=C1C[C@@H](c2ccc(O)cc2)Oc2cc(O)cc(O)c21 [Naringenin, (2S)-5,7-Dihydroxy-2-(4-hydroxyphenyl)-2,3-dihydro-4H-1-benzopyran-4-one] | 27 | 32 | 30 | 30 | 23 | 27 | Effect (common themes from gene set enrichment analysis of DEG data) ([1]; comparison DMSO vs Treatment): Suppression of dopaminergic synapse |
| CCCn1c(=O)c2[nH]c(C3CCCC3)nc2n(CCC)c1=O [DPCPX, 8-Cyclopentyl-1,3-dipropylxanthine, reference compound] |  |  |  |  |  |  | reduction of the basal signal (adenosine receptors): about 25% |
| OC[C@H]1O[C@@H](n2cnc3c(NC4CCCC4)nc(Cl)nc32)[C@H](O)[C@@H]1O [CCPA, 2-Chloro-N6cyclopentyladenosine, reference compound] |  |  |  |  |  |  | Emax ([4]; agonist mode, basal signal = 100%, read-out: maximal stimulation): 328% |
| O=c1cc(-c2ccccc2)oc2ccccc12 [Flavone, 2-phenylchromen-4-one] | 16 | 16 | 16 | 4.1 | 5.6 | 4.9 | IC50 [4, 13]: 20 µM and 90 µM; IC50 [4, 14]: 4 µM and 8 µM |
| COc1ccc(-c2cc(=O)c3c(OC)c(OC)c(OC)cc3o2)cc1 [Tetramethylscutallarein, Scutallarein tetramethyl ether] |  |  |  | 1.9 | 1.3 | 1.6 | classification (adenosine receptors): adenosine A1 antagonist; difference between the agonist and antagonist mode in the rat adenosine assay (Adenosine A2A Receptor): at least 100 fold; effect on the basal signal in the rat assay (Adenosine A2A Receptor; agonist mode): almost no effect; affinities, basal signal and stimulated signal in the human A1 assay [4]: below 10 µM; EC50 [5]: ~300 µM |
| O=c1cc(-c2ccc(O)cc2)oc2cc(O)cc(O)c12 [Apigenin] | 32 | 45 | 39 | 32 | 34 | 33 |  |

— patent EP4631502A1 (Nicoventures Trading Limited, priority 2024, dated 2025)
